The subject of one assay is HAP1 MTAP-intact. Nature of the assay: SDMA in-cell western assay, HAP1 MTAP-intact cell line. Format: cell-based. The following applies: Homo sapiens. Summed up:
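HAP1 isogenic pair: endogenous MTAP vs MTAP-null. Readout SDMA by in-cell western; IC50 per line. Ratio ≥3 fold = MTAP-selective.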

Assay [1] concerns the target T1, PRMT5 (Homo sapiens, UniProt O14744).
T1 construct: purchased Viva (custom protein)
Nature of the assay: PRMT5 IC50 assay in the presence of SAM as cofactor. Format: biochemical. Summed up:
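Cofactor-free, SAM and MTA formats; IC50 μM; Ki = IC50/1.5 for SAM, IC50/13.5 for MTA.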

Another assay deals with HAP1 MTAP-deleted. Nature of the assay: SDMA in-cell western assay, HAP1 MTAP-deleted cell line. Format: cell-based. The following applies: for IC50: Homo sapiens, HAP1 MTAP-deleted cell line; for MTAP Intact/Deleted Ratio: IC50 ratio HAP1 MTAP-intact / HAP1 MTAP-deleted. An outline of the steps:
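IC50 from SDMA in-cell western; HAP1 line lacking MTAP (null), paired isogenically with MTAP-intact HAP1 expressing endogenous MTAP.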

Assay [2] deals with T1, PRMT5. Nature of the assay: PRMT5 IC50 assay with no cofactor. The class given is biochemical. An outline of the steps: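 Each compound is tested on PRMT5 in the presence of SAM, of MTA, and without any cofactor. Ki values are then back-calculated using fixed factors of 1.5 (SAM) and 13.5 (MTA), and the two Ki values are compared as a ratio.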
In assay [3] the target is T1, PRMT5. Nature of the assay: PRMT5 IC50 assay in the presence of MTA as cofactor. The class given is biochemical. The following applies: for IC50: PRMT5, MTA as cofactor. An outline of the steps:
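Three cofactor conditions are run: SAM-bound, MTA-bound and cofactor-free enzyme. IC50 is read from each; for the SAM and MTA arms it is divided by 1.5 and 13.5 respectively to give Ki.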

Where [4] appears, read: ratio between the Ki in the presence of SAM and the Ki in the presence of MTA.
[5] abbreviates: ratio between Ki in the presence of SAM and Ki in the presence of MTA.

These results are taken from patent US11986471B2, “Compounds and methods of use” (Tango Therapeutics, Inc., priority 2018, dated 2024).

Molecules are shown by their SMILES. A value given as a limit tells only on which side of the number the result lay.

T1 sequence (O14744 whole entry): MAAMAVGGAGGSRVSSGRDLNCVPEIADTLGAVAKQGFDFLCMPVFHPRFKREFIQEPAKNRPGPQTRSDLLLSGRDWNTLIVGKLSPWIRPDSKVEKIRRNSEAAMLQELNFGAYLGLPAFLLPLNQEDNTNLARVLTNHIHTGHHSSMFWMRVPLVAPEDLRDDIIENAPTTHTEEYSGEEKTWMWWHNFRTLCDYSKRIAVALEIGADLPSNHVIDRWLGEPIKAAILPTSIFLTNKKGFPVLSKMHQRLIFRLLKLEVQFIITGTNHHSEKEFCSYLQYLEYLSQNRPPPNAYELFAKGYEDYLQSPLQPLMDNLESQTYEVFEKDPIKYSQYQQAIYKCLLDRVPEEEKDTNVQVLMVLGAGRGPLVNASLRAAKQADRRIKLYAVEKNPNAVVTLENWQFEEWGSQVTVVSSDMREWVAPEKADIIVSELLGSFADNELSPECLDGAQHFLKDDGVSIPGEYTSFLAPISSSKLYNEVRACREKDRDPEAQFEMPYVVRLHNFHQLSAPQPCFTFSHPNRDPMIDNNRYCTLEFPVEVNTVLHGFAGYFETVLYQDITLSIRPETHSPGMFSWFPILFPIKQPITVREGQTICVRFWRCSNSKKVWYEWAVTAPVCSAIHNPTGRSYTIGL
T1 sequence (Q9BQA1 whole entry partner): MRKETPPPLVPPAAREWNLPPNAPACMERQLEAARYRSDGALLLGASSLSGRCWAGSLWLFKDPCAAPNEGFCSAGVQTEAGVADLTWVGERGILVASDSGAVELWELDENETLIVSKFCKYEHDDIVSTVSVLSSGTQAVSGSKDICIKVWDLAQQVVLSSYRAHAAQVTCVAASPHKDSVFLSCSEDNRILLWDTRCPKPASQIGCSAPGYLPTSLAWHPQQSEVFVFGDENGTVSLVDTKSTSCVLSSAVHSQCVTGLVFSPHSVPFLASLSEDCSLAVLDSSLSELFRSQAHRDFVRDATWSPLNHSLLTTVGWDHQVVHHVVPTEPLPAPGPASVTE

In the case of `Cc1ncoc1COc1ccc2c(c1)CCN(C[C@@H](O)CNC(=O)c1cc(NC3CC4(CC4)C3)nc(N3CCN(C(=O)C4CC4)CC3)c1)C2` [Compound 611, (S)-2-(4-(cyclopropanecarbonyl)piperazin-1-yl)-N-(2-hydroxy-3-(6-((4-methyloxazol-5-yl)methoxy)-3,4-dihydroisoquinolin-2(1H)-yl)propyl)-6-(spiro[2.3]hexan-5-ylamino)isonicotinamide], the IC50 (usually the concentration at which inhibition is half-maximal) was below 1000 nM with HAP1 MTAP-intact; 50 to 500 nM at PRMT5 [1]; below 1000 nM with HAP1 MTAP-deleted; 50 to 500 nM against PRMT5 [2]; below 50 nM on PRMT5 [3]. Further, in the assay on HAP1 MTAP-deleted, the “MTAP Intact/Deleted Ratio” value was “B* (an IC50 ratio greater than or equal to 3 fold but lower than 10 fold between the IC50 in the HAP1 MTAP-intact cell line and the HAP1 MTAP-deleted cell line)”. Further, the “SAM/MTA Ratio” value at PRMT5 [3] (setting [4]) is “A (a Ki ratio greater than or equal to 10 fold between the Ki in the presence of SAM and the Ki in the presence of MTA)”.
Consider `Cc1ncoc1COc1ccc2c(c1I)CCN(C[C@@H](O)CNC(=O)c1ccnc(NC3CCC3)c1)C2` [Compound 268, 2-(cyclobutylamino)-N-[(2S)-2-hydroxy-3-[5-iodo-6-[(4-methyloxazol-5-yl)methoxy]-3,4-dihydro-1H-isoquinolin-2-yl]propyl]pyridine-4-carboxamide], for which the IC50 in the assay on HAP1 MTAP-intact was at least 10000 nM; on PRMT5 [1] it was 500 to 5000 nM; in the assay on HAP1 MTAP-deleted, at least 10000 nM; on PRMT5 [2] (read-out: No Co-factor IC50), at least 5000 nM; on PRMT5 [3], 500 to 5000 nM. Besides, the “MTAP Intact/Deleted Ratio” value in the assay with HAP1 MTAP-deleted is “C* (an IC50 ratio of less than 3 fold between the IC50 in the HAP1 MTAP-intact cell line and the HAP1 MTAP-deleted cell line)”.
In the case of `Cc1ncoc1COc1ccc2c(c1Cl)CCN(C[C@@H](O)CNC(=O)c1cccc(NC3COC3)c1)C2` [Compound 490, N-[(2S)-3-[5-chloro-6-[(4-methyl-1,3-oxazol-5-yl)methoxy]-1,2,3,4-tetrahydroisoquinolin-2-yl}-2-hydroxypropyl]-3-[(oxetan-3-yl)amino]benzamide], the concentration for half-maximal inhibition (IC50) was at least 10000 nM in the assay on HAP1 MTAP-intact; 500 to 5000 nM on PRMT5 [1]; at least 10000 nM in the assay with HAP1 MTAP-deleted; at least 5000 nM against PRMT5 [2]; 500 to 5000 nM on PRMT5 [3]. The “MTAP Intact/Deleted Ratio” value in the assay with HAP1 MTAP-deleted was “C* (an IC50 ratio of less than 3 fold between the IC50 in the HAP1 MTAP-intact cell line and the HAP1 MTAP-deleted cell line)”. Moreover, the “SAM/MTA Ratio” value on PRMT5 [3] (setting [4]) was “A (a Ki ratio greater than or equal to 10 fold between the Ki in the presence of SAM and the Ki in the presence of MTA)”.
Turning to `O=C(NC[C@H](O)CN1CCc2cc(OCc3cnco3)ccc2C1)c1cc(NC2CCCCC2)ncn1` [Compound 395, (S)-6-(cyclohexylamino)-N-(2-hydroxy-3-(6-(oxazol-5-ylmethoxy)-3,4-dihydroisoquinolin-2(1H)-yl)propyl)pyrimidine-4-carboxamide], the IC50 is at least 10000 nM in the assay with HAP1 MTAP-intact; 500 to 5000 nM on PRMT5 [1]; 1000 to 10000 nM in the assay on HAP1 MTAP-deleted; at least 5000 nM on PRMT5 [2] (read-out: No Co-factor IC50); 50 to 500 nM on PRMT5 [3]. Further, the “SAM/MTA Ratio” value on PRMT5 [3] (setting [5]) is “A (a Ki ratio greater than or equal to 10 fold between the Ki in the presence of SAM and the Ki in the presence of MTA)”.
For `COCCN(C)c1cc(C(=O)NC[C@H](O)CN2CCc3c(ccc(OCc4ocnc4C)c3C)C2)cc(NC2CCC2)n1` [Compound 437, 2-(cyclobutylamino)-N-[(2S)-2-hydroxy-3-{5-methyl-6-[(4-methyl-1,3-oxazol-5-yl)methoxy]-1,2,3,4-tetrahydroisoquinolin-2-yl}propyl]-6-[(2-methoxyethyl)(methyl)amino]pyridine-4-carboxamide], the 50% inhibitory concentration (IC50) was at least 10000 nM in the assay with HAP1 MTAP-intact; 50 to 500 nM on PRMT5 [1]; 1000 to 10000 nM with HAP1 MTAP-deleted; at least 5000 nM at PRMT5 [2]; 50 to 500 nM on PRMT5 [3]. Besides, in the assay with HAP1 MTAP-deleted, the “MTAP Intact/Deleted Ratio” value is “B* (an IC50 ratio greater than or equal to 3 fold but lower than 10 fold between the IC50 in the HAP1 MTAP-intact cell line and the HAP1 MTAP-deleted cell line)”. In addition, on PRMT5 [3] (setting [4]), the “SAM/MTA Ratio” value is “A (a Ki ratio greater than or equal to 10 fold between the Ki in the presence of SAM and the Ki in the presence of MTA)”.
Regarding `CC(=O)N1CCC(Nc2cc(C(=O)NC[C@H](O)CN3CCc4c(C)c(OCc5ocnc5C)cc(F)c4C3)ncn2)CC1` [Compound 618, 6-[(1-acetyl-4-piperidyl)amino]-N-[(2S)-3-[8-fluoro-5-methyl-6-[(4-methyloxazol-5-yl)methoxy]-3,4-dihydro-1H-isoquinolin-2-yl]-2-hydroxy-propyl]pyrimidine-4-carboxamide], the IC50 in the assay on HAP1 MTAP-intact is at least 10000 nM; on PRMT5 [1], 50 to 500 nM; in the assay with HAP1 MTAP-deleted, 1000 to 10000 nM; against PRMT5 [2], 500 to 5000 nM; on PRMT5 [3], 50 to 500 nM. The “MTAP Intact/Deleted Ratio” value in the assay on HAP1 MTAP-deleted is “B* (an IC50 ratio greater than or equal to 3 fold but lower than 10 fold between the IC50 in the HAP1 MTAP-intact cell line and the HAP1 MTAP-deleted cell line)”.
With `CC(C)Cc1cc(C(=O)NC[C@H](O)CN2CCc3c(ccc(OCc4cnco4)c3Cl)C2)cc(NC2CCC2)n1` [Compound 287], the IC50 in the assay on HAP1 MTAP-intact was at least 10000 nM; on PRMT5 [1] it was 500 to 5000 nM; in the assay on HAP1 MTAP-deleted, at least 10000 nM; at PRMT5 [2] (read-out: No Co-factor IC50) it was at least 5000 nM; at PRMT5 [3] it was 500 to 5000 nM. The “MTAP Intact/Deleted Ratio” value in the assay with HAP1 MTAP-deleted was “C* (an IC50 ratio of less than 3 fold between the IC50 in the HAP1 MTAP-intact cell line and the HAP1 MTAP-deleted cell line)”. On PRMT5 [3] (setting [5]), the “SAM/MTA Ratio” value was “A (a Ki ratio greater than or equal to 10 fold between the Ki in the presence of SAM and the Ki in the presence of MTA)”.
In the case of `COCCN(C)c1cc(C(=O)NC[C@H](O)CN2CCc3cc(OCc4ocnc4C)ccc3C2)cc(NC2CCN(C(C)=O)CC2)n1` [Compound 582], the IC50 in the assay on HAP1 MTAP-intact was 1000 to 10000 nM; on PRMT5 [1], 50 to 500 nM; in the assay on HAP1 MTAP-deleted, below 1000 nM; on PRMT5 [2], 500 to 5000 nM; on PRMT5 [3] it was 50 to 500 nM. In addition, in the assay on HAP1 MTAP-deleted, the “MTAP Intact/Deleted Ratio” value is “A* (an IC50 ratio greater than or equal to 10 fold between the IC50 in the HAP1 MTAP-intact cell line and the HAP1 MTAP-deleted cell line)”. The “SAM/MTA Ratio” value at PRMT5 [3] (setting [4]) was “A (a Ki ratio greater than or equal to 10 fold between the Ki in the presence of SAM and the Ki in the presence of MTA)”.
On to `CC(=O)N1CC(Nc2cc(C(=O)NC[C@H](O)CN3CCc4cc(OCc5ocnc5C)ccc4C3)nc(C(C)C)n2)C1` [Compound 568, (S)-6-((1-acetylazetidin-3-yl)amino)-N-(2-hydroxy-3-(6-((4-methyloxazol-5-yl)methoxy)-3,4-dihydroisoquinolin-2(1H)-yl)propyl)-2-isopropylpyrimidine-4-carboxamide], for which the IC50 in the assay with HAP1 MTAP-intact is 1000 to 10000 nM; at PRMT5 [1] it was 50 to 500 nM; in the assay with HAP1 MTAP-deleted, below 1000 nM; at PRMT5 [2], 500 to 5000 nM; on PRMT5 [3], 50 to 500 nM. In addition, the “MTAP Intact/Deleted Ratio” value in the assay on HAP1 MTAP-deleted is “C* (an IC50 ratio of less than 3 fold between the IC50 in the HAP1 MTAP-intact cell line and the HAP1 MTAP-deleted cell line)”. The “SAM/MTA Ratio” value at PRMT5 [3] (setting [4]) was “A (a Ki ratio greater than or equal to 10 fold between the Ki in the presence of SAM and the Ki in the presence of MTA)”.
As to `Cc1ncoc1COc1ccc2c(c1C)CCN(C[C@@H](O)CNC(=O)c1cc(NC3COC3)nc(N3CCN(C(C)C)CC3)n1)C2` [Compound 444, N-[(2S)-2-hydroxy-3-{5-methyl-6-[(4-methyl-1,3-oxazol-5-yl)methoxy]-1,2,3,4-tetrahydroisoquinolin-2-yl}propyl]-6-[(oxetan-3-yl)amino]-2-[4-(propan-2-yl)piperazin-1-yl]pyrimidine-4-carboxamide], the half-maximal inhibitory concentration (IC50) is at least 10000 nM in the assay with HAP1 MTAP-intact; 50 to 500 nM at PRMT5 [1]; 1000 to 10000 nM with HAP1 MTAP-deleted; at least 5000 nM at PRMT5 [2]; 50 to 500 nM on PRMT5 [3]. In addition, the “MTAP Intact/Deleted Ratio” value in the assay with HAP1 MTAP-deleted was “C* (an IC50 ratio of less than 3 fold between the IC50 in the HAP1 MTAP-intact cell line and the HAP1 MTAP-deleted cell line)”. Moreover, at PRMT5 [3] (setting [4]), the “SAM/MTA Ratio” value was “A (a Ki ratio greater than or equal to 10 fold between the Ki in the presence of SAM and the Ki in the presence of MTA)”.
As to `O=C(NC[C@H](O)CN1CCc2cc(OCc3cnco3)ccc2C1)c1cc(NC2CCC2)nc(N2CCNCC2)c1` [Compound 422], the half-inhibitory concentration (IC50) fell in the range of 1000 to 10000 nM in the assay on HAP1 MTAP-intact; 50 to 500 nM at PRMT5 [1]; 1000 to 10000 nM with HAP1 MTAP-deleted; 500 to 5000 nM on PRMT5 [2] (read-out: No Co-factor IC50); 50 to 500 nM at PRMT5 [3]. In the assay on HAP1 MTAP-deleted, the “MTAP Intact/Deleted Ratio” value was “C* (an IC50 ratio of less than 3 fold between the IC50 in the HAP1 MTAP-intact cell line and the HAP1 MTAP-deleted cell line)”. The “SAM/MTA Ratio” value on PRMT5 [3] (setting [5]) was “A (a Ki ratio greater than or equal to 10 fold between the Ki in the presence of SAM and the Ki in the presence of MTA)”.
For the compound `O=C(NC[C@H](O)CN1CCc2c(ccc(OCc3cnco3)c2Cl)C1)c1cc(NC2CCC2)nc(N2CCCCC2)c1` [Compound 305, (S)—N-(3-(5-chloro-6-(oxazol-5-ylmethoxy)-3N-dihydroisoquinolin-2(1H)-yl)-2-hydroxypropyl)-2-(cyclobutylamino)-6-(piperidin-1-yl)isonicotinamide], the half-inhibitory concentration (IC50) with HAP1 MTAP-intact is at least 10000 nM; on PRMT5 [1], 500 to 5000 nM; in the assay with HAP1 MTAP-deleted, 1000 to 10000 nM; on PRMT5 [2] (read-out: No Co-factor IC50), at least 5000 nM; on PRMT5 [3], 500 to 5000 nM. The “MTAP Intact/Deleted Ratio” value in the assay on HAP1 MTAP-deleted is “C* (an IC50 ratio of less than 3 fold between the IC50 in the HAP1 MTAP-intact cell line and the HAP1 MTAP-deleted cell line)”. Also, on PRMT5 [3] (setting [5]), the “SAM/MTA Ratio” value was “A (a Ki ratio greater than or equal to 10 fold between the Ki in the presence of SAM and the Ki in the presence of MTA)”.
